How the values were obtained:
[1] = system: OCI-LY10 human DLBCL xenografts; assay: Study 4: combination efficacy (Compound B BID + Compound A BID), OCI-LY10 xenografts in NSG mice; assay type: in vivo, mouse
Protocol: Following early animal dropouts in Study 2 due to tumor progression (metastasis and hindlimb paralysis), NSG female mice in Study 3 and Study 4 were injected SC into the right flank with a lower cell number (1×10^6 OCI-LY10 cells) in PBS containing 50% Matrigel™. On day 35 (Study 3) or day 32 (Study 4), mice were randomized based on tumor volume (see Table 4) and dosed orally QD day with Compound B and BID with Compound A (Study 3) or BID for both compounds (Study 4) with various dose concentrations according to treatment schedule above (see Table 4) for a period of 21 days.
Tumor volume in SC models was calculated using the formula: tumor volume (mm^3)=(D×d^2/2); where “D” represents the larger diameter and “d” the smaller diameter of the tumor as determined by calliper measurements. Tumor volume data was graphed as the mean tumor volume f SEM.
The percent ΔTGI was defined as the difference between mean tumor burden of the treatment and control groups, calculated using the following formula: ([(TVc−TVc0)−(TVt−TVt0)]/(TVc−TVc0))×100, where “TVc” is the mean tumor burden of a given control group, “TVc0” is the mean initial tumor burden of a given control group, “TVt” is the mean tumor burden of the treatment group, and “TVt0” is the mean initial tumor burden of the treatment group. The percent tumor growth inhibition (TGI) was defined as the difference between mean tumor volumes of the treated and control groups, calculated as: ((TVc−TVt)/TVc)×100 where “TVc” is the mean tumor volume of the control group and “TVt” is the mean tumor volume of the treatment group. […]
Tumor regression was calculated when mean tumor burden in treated group was smaller than the tumor burden at start of treatment of the same treated group. The % Tumor Regression (TR), quantified to reflect the treatment-related reduction of tumor volume as compared to baseline independent of the control group, was calculated using the following formula: % TR=(1-mean (TVti/TVt0i))×100 where “TVti” is the tumor burden of individual animals in a treatment group, and “TVt0i” is the initial tumor burden of the animal. […]

OCI-Ly3 = assay: Inhibition of DLBCL cancer cell proliferation (CellTiter-Glo), Compound A and Compound B mono and combination; assay type: cell-based; conditions: monotherapy, highest concentration tested, 4 days
Protocol: (§1) Compound A and Compound B were used throughout the in vitro and cellular assessment of activity. All small molecules were prepared as 100% dimethyl sulfoxide (DMSO) stocks as indicated. A final concentration of 0.25% DMSO was used as a control. High Control=Cells+DMSO 0.25%.
(§2) A panel of 4 B-cell lymphoma lines was treated with different doses of both compounds. The following ABC-DLBCL cell lines were tested: OCI-Ly10; TMD8; OCI-Ly3; and HBL1. The cell lines were grown in 96-well plates and treated with a matrix of seven scalar concentrations of Compound A ([…]) and six scalar concentrations of Compound B ([…]) and all combinations thereof. This checkerboard design was repeated on up to four separate plates. The final concentration of DMSO was 0.25%. After an incubation of four days at 37° C. and 5% CO2, cell viability was determined by adding CellTiter-Glo®. Luminescence was read on an Envision device and readouts were used to calculate potential combination effects.
(§3) For the assessment of combination effects on DLBCL or MCL cancer cell proliferation, the observed combination effects were evaluated using the public available BIGL (Biochemically Intuitive Generalized Loewe Model) R package which measures the evidence in the data, in the presence of variability, against certain null models derived from the monotherapies. In first step, monotherapies were fitted with 4PL models with extra constraint of common baseline between two agents. When no activity was observed, a straight line was fitted through the monotherapy data. In a second step, hypothesis tests at 5% significance level were performed which basically contrast the observed readouts of the combination experiments with those predicted from the null model derived from the monotherapies where both HSA (Highest Single Agent) 17 and generalized Loewe18 were assessed for these studies.

TMD8 = assay: as above; assay type: cell-based; conditions: monotherapy, highest concentration tested, 4 days
Protocol: as §1, §2, §3

OCI-Ly10 = assay: Proliferation of ABC-DLBCL cell lines (IC50); assay type: cell-based; conditions: Homo sapiens, OCI-Ly10; read-out: IC50, inhibition of proliferation
human IL-10 = assay: Study 1: circulating human IL-10 cytokine serum levels in OCI-LY10 tumor bearing NSG mice (MSD assay); assay type: in vivo, mouse
Protocol: In Study 1, 5×10^6 OCI-LY10 cells in PBS containing 50% Matrigel™ were injected subcutaneously (SC) into the right hind flank of female NSG mice. Tumor growth was measured over time and once tumors reached volumes of approximately 525 mm^3, mice were randomized in groups of 15 and treated orally with a single dose of Compound B according to treatment schedule (see Table 4). Blood was collected serially by mandibular vein sampling from 5 animals per time point per group to determine circulating compound concentration and IL10 levels at 2, 4, 8, 12, 16, and 24 hours post single dose. Blood was harvested in EDTA and plasma was obtained via centrifugation at 3000 rpm for 10 minutes. In addition, tumor samples were harvested from 5 animals per timepoint per treatment group for BTK occupancy studies at 4, 12, and 24 hours post single dose.
NF-κB signaling regulates the secretion of multiple cytokines, including interleukin-10 (IL-10). Both BTK and MALT1 inhibition effect NF-kB signaling resulting in decreased IL-10 transcription and secretion. Circulating human IL-10 cytokine levels were measured in the serum of OCI-LY10 ABC-DLBCL tumor bearing NSG mice, using a Mesoscale Discovery assay (MSD). 25 μL of mouse serum was transferred to an MSD plate (V-Plex Proinflammation Panel 1 [human] kit) and incubated together with 25 μl diluent 2 (MSD; R51BB-3) for 2 hours at RT followed by a 2-hour incubation with IL-6/-10 antibody solution. Plates were read on a SECTOR imager.

[2] = Study 4, day 52, Compound B 15 mg/kg BID

C=CC(=O)N[C@H]1CCC[C@H]1NC(=O)c1sc2nccc3c2c1NC(=O)N3c1cnc(CC(C)C)cc1C (atropisomer, axis not shown) [Compound B, N-((1R,2S)-2-acrylamidocyclopentyl)-5-(S)-(6-isobutyl-4-methylpyridin-3-yl)-4-oxo-4,5-dihydro-3H-1-thia-3,5,8-triazaacenaphthylene-2-carboxamide]
TGI [1, 2]: 49%
ΔTGI [1, 2]: 56%
TR (tumor regression) ([1]; Study 4, Compound B 50 mg/kg BID monotherapy): 8%
proliferation inhibition (OCI-Ly3): did not inhibit proliferation
proliferation inhibition (TMD8): up to 80%
IC50 (OCI-Ly10): 18 nM
human IL-10 serum level, % of vehicle control (human IL-10; 2 hours after single oral dose, dose level not specified): around 50%
human IL-10 serum level, % of vehicle control (human IL-10; 4 hours after single dose, 10 mg/kg): below 20%
human IL-10 serum level, % of vehicle control (human IL-10; 4 hours after single dose, 30 mg/kg): < 10%
human IL-10 serum level, % of vehicle control (human IL-10; 4 hours after single dose, 100 mg/kg): < 5%
human IL-10 serum level, % of vehicle control (human IL-10; 16 hours after single dose, 10 mg/kg): 39%
human IL-10 serum level, % of vehicle control (human IL-10; 16 hours after single dose, 30 mg/kg): 23%
human IL-10 serum level, % of vehicle control (human IL-10; 16 hours after single dose, 100 mg/kg): 23%
human IL-10 serum level (human IL-10; 24 hours after single dose): normalize
decrease in circulating human IL-10 cytokine serum levels (human IL-10; Compound B at 1, 3, 10, 30, or 100 mg/kg single dose, maximal at ≥ 10 mg/kg from 4-8 hours, baseline by 24 hours): Dose-and time-dependent
serum interleukin (IL)-10 secretion (human IL-10; single dose as low as 30 mg/kg, effects lasting up to 24 hours): completely inhibited
human IL-10 serum level (human IL-10; up to 12 hours after single dose, 10, 30, 100 mg/kg): remaining low

Source: patent US20220288058A1, “COMBINATION THERAPY USING A MALT1 INHIBITOR AND A BTK INHIBITOR” (Janssen Pharmaceutica NV, priority 2021, published 2022)
